Data: patent US9328059B2, “Pharmaceutical composition for preventing or treating autophagy-related diseases, angiogenic diseases or melanin-related diseases” (INDUSTRY-ACADEMIC COOPERATION FOUNDATION, YONSEI UNIVERSITY, priority 2010, dated 2016)
pIC50: −log10 of the molar value.

How the values were obtained:
[1] = test system: HeLa cells; experiment: LC3 immunoblotting (LC3-I to LC3-II conversion) in HeLa; format: cell-based, human; conditions: for effect of autophagy inhibitor on indatraline-induced conversion of LC3-I to LC3-II: inhibitor pre-treated 1 hr
Procedure: (§1) Soluble proteins were harvested from indatraline-treated HeLa cells by using SDS buffer (50 mM Tris HCl, pH 6.8, 10% glycerol, 2% SDS, 10 mM dithiothreitol, and 0.005% bromophenol blue). Equal volumes of proteins were separated by 12.5% SDS-PAGE and transferred to PVDF membranes (Millipore). Blots were then blocked and immunolabeled overnight at 4° C. using anti-LC3 antibody (MBL, Nagoya, Japan). Immunolabeling was visualized with enhanced chemiluminescence (ECL) kit (Amersham Life Science, Inc., Buckinghamshire, UK) according to the manufacturer's protocol. Tubulin was used as an internal control and was detected using anti-tubulin antibody (Upstate Biotechnology).
LC3 conversion was finally verified by immunoblotting. After indatraline treatment for 24 hrs, the conversion of LC3-I to LC3-II in cells was tested (FIG. 2A). Inductions of autophagy in both of HUVEC and HeLa cells were tested in concentration starting from 5 μM. In order to investigate signal pathway related to indatraline, well-known autophagy inhibitors 3-MA (10 mM), Bafilomycin A (100 nM), PD98059 (10 μM) and Wortmannin (100 nM) was treated with indatraline. The inhibitors were pre-treated for 1 hr before indatraline and treated with 5 μM or 10 μM of indatraline. Where indatraline was treated with 5 μM of concentration, the conversion of LC3-I to LC3-II was inhibited in Bafilomycin A-treated sample and Wortmannin-treated sample (FIG. 2B). However, where indatraline was treated with 10 μM of concentration, the conversion of LC3-I to LC3-II was not inhibited in inhibitor-treated samples, except for Bafilomycin A-treated sample.

[2] = test system: HeLa cells; experiment: Autophagy detection by Lysotracker fluorescence, quantified by HCS
Text: (§4) Each sample was washed with PBS three times and visualized by fluorescence microscopy. […] Hoechst 33258 and LysoTracker were purchased from Molecular Probes (Eugene, Oreg.), and MDC was purchased from BioChemika (Sigma, Switzerland).

[3] = test system: HeLa cells; experiment: Autophagy detection by MDC staining; conditions: 24 hrs
Text: as §4

[4] = test system: skin cancer cell line B16-F10; experiment: LC3 conversion in B16-F10; format: cell-based; conditions: B16-F10, 5 μM and 10 μM
[5] = test system: melan-a cells; experiment: Measurement of amounts of melanin generated in melan-a; conditions: 5 μM, vs control group
Procedure: (§5) In order to verify whether indatraline induces autophagy and is involved in melanogenesis, skin cancer cell line B16-F10 and normal skin cell line melan-a were treated with indatraline to determine autophagy generation. The amount of melanin generated in each cell line was measured at 5 μM concentration in which autophagy strongly occurs. For measurement on amounts of melanin, cells were treated with indatraline for 24, 48 and 72 hrs, and collected with KOH every day to measure melanin pigment absorbance at 410 nm. At the same time, cell proliferation was measured using MTT.
(§6) The amount of melanin generated in each cell line was measured at 5 μM of concentration which autophagy surely occurs. […] At the same time, cell growth was measured.

[6] = test system: HUVEC; experiment: Cell migration (wound) assay; format: cell-based; conditions: 5 μM and 10 μM, 9 hrs
Procedure: To measure cell migration, HUVEC cells were cultured up to 100% confluence in 12-well plates. Then, the well was wounded a straight scratch using a 200 μL pipette tip. Cells were treated with indatraline and cells migration was observed every 3 hrs. The wound at 9 hrs was recovered by almost 80%. The images were obtained using DP70 camera with 40× magnification.

[7] = test system: melan-a cells; experiment: Cell growth (MTT) in melan-a; conditions: 5 μM, vs control group
Procedure: as §5, §6

[8] = test system: HUVEC; experiment: Cell proliferation assay (MTT) in HUVEC; format: cell-based; conditions: Homo sapiens, 72 h, 3 days
Procedure: (§2) Cell proliferation was measured using a MTT [3-(4,5-dimethylthiazol-2-yl)-2,5-diphenyltetrazolium bromide] colorimetric assay. HeLa cells and HUVEC (Lonza, USA) were seeded at a density of 3×10^3 cells/well in 96-well plates and incubated for 24 hrs. Cells were treated with various concentration of indatraline. After 3 days of treatment, 2 mg/mL MTT was added to each well and incubated for 4 hrs. MTT formazoan in each well was dissolved in 150 μL of DMSO, and absorbance at 595 nm was measured in a microplate reader (Bio-Tek Instrument Inc., Winooski, Vt.). Relative cell growth was measured by calculating the ratio between signal of indatraline-treated wells and control wells.

[9] = test system: B16-F10 cells; experiment: Measurement of amounts of melanin generated in B16-F10; conditions: B16-F10, 5 μM, vs control group
Procedure: as §5, §6

[10] = test system: B16-F10 cells; experiment: Cell growth (MTT) in B16-F10; conditions: B16-F10, 5 μM, vs control group
Procedure: as §5, §6

[11] = test system: HUVEC; experiment: VEGF-induced chemoinvasion assay; format: cell-based
Procedure: In vitro HUVEC invasion was verified using Transwell chamber equipped 8.0-1 m size pore polycarbonate filter insert. Briefly, the lower layer surface of the filter was coated with gelatin (1 mg/mL), and the upper layer surface of the filter was coated with matrigel (3 mg/mL). HUVEC (7×10^4 cells) was placed in the upper layer of the filter, and the compound was added to the lower layer of the filter under the presence of VEGF (50 ng/ml). Then, the chamber was incubated at 37° C. for 18 hrs. The cells were fixed with 70% methanol and stained with hematoxylin and eosin. The lower layer of the filter was observed by microscope with 100× magnification to measure the cell invasion. The cell images were obtained using DP70 camera.

[12] = test system: COS7 cells stably expressing EGFP-LC3; experiment: Autophagy detection in stable cell line expressing EGFP-LC3; format: cell-based, African green monkey; conditions: COS7 EGFP-LC3, 24 hrs
Procedure: HeLa (human epithelial cervix adenocarcinoma) cells and COS-7 (African green monkey kidney cells) cells (Korean Cell Line Bank) were grown and maintained in DMEM containing 10% FBS (fetal bovine serum). A stable COS7 cell line expressing EGFP-LC3 was established by transfecting COS7 cells with pEGFP-LC3 using Lipofectamine 2000 according to the manufacturer's protocol (Invitrogen). Stable clones were selected in complete medium containing 750 μg/mL of G418. Cells were cultured at 37° C. in an atmosphere of 5% CO2 in air, pH 7.4. DMEM and FBS were obtained from Gibco Laboratories (Grand Island, N.Y.). Plasmids encoding EGFP-LC3 was kindly provided by Tamotsu Yoshimori (National Institute for Basic Biology, Japan).
In order to measure direct elements of autophagy, indatraline-induced autophagy was further verified in stable COST cell line expressing EGFP-LC3. Where autophagy was induced, the cytosolic form of LC3 is converted into the membrane-bound form. By the recruitment of Atg12-Atg5 complex, the cytosolic form of LC3 is converted into the membrane-bound form to mature the autophagosome. After indatraline treatment for 24 hrs, EGFP-LC3 positive small vacuoles were examined in the cytosol.

[13] = test system: HeLa cell; experiment: Cytotoxicity during autophagy screening in HeLa; format: cell-based, human; conditions: 5 μM, 24 hrs
Procedure: (§3) The present study is newly reported that indatraline induces autophagy. Although the relationship between neurotransmitter inhibitor and autophagy has been studying, specific mechanisms for each neurotransmitter inhibitor have not yet been unknown. Indatraline-induced autophagy was verified by fluorescence screening and LC3 conversion immunoblotting. In addition, indatraline inhibits cell proliferation with an IC50 of 3 μM in HeLa cell and an IC50 of 0.5 μM in HUVEC cell, respectively. […] In addition, angiogenesis inhibitory effect of indatraline is tested as autophagy inducer and cell growth inhibitor. Indatraline of In vitro assay inhibits capillary formation, invasion and migration as angiogenesis indicators. […] Induction of autophagy may trigger signal inhibiting angiogenesis, or inhibition of neurotransmitter may simultaneously stimulate inhibitions of both of autophagy and angiogenesis.

[14] = test system: HUVEC cell; experiment: Cytotoxicity during autophagy screening in HUVEC; format: cell-based; conditions: 5 μM, 24 hrs
Procedure: as §3

[15] = test system: HUVEC; experiment: LC3 immunoblotting (LC3-I to LC3-II conversion) in HUVEC; format: cell-based; conditions: 24 hrs
Procedure: as §1
LC3 conversion was finally verified by immunoblotting. After indatraline treatment for 24 hrs, the conversion of LC3-I to LC3-II in cells was tested (FIG. 2A). Inductions of autophagy in both of HUVEC and HeLa cells were tested in concentration starting from 5 μM. In order to investigate signal pathway related to indatraline, well-known autophagy inhibitors 3-MA (10 mM), Bafilomycin A (100 nM), PD98059 (10 μM) and Wortmannin (100 nM) was treated with indatraline. The inhibitors were pre-treated for 1 hr before indatraline and treated with 5 μM or 10 μM of indatraline. […]

[16] = test system: normal skin cell line melan-a; experiment: LC3 conversion in melan-a; format: cell-based
Procedure: It was verified whether indatraline is induced autophagy and involved in melanogenesis. The correlation of autophagy and melanogenesis has been studied as described above. Pigmentation disorders are generated by melanogenesis (chloasma, freckle, age spot, etc.), and abnormality of melanogenesis control can lead to melanoma (skin cancer). Therefore, melanogenesis control may be used to whitening and skin cancer treatment. […] As a result, it was determined that autophagy was induced. […] In melan-a cells, LC3 conversion was observed from 1 μM of concentration (FIG. 5A).

[17] = test system: rat carotid artery; experiment: Inhibition of angiostenosis after balloon injury; format: in vivo; conditions: 7 days
Procedure: In order to verify effects for inhibiting angiostenosis by indatraline as autophagy-induced material in rat carotid artery, a balloon injury was created in the normal left rat carotid artery. After balloon injury, indatraline, rapamycin and DMSO (control group) were treated using catheter to observe angiostenosis. […] At 7 days after the injury, the carotid arteries were excised. Smooth muscle cells were stained with hematoxylin and eosin (H&E). Levels of angiostenosis were observed.
After balloon injury, indatraline, rapamycin and DMSO (control group) were treated using catheter to observe angiostenosis. […] The ratio between intima area and media area was compared by observing tissue stenosed.

[18] = test system: HeLa cells; experiment: Cell proliferation assay (MTT) in HeLa; format: cell-based; conditions: Homo sapiens, 72 h, 3 days
Procedure: as §2

[19] = test system: HUVEC; experiment: VEGF-induced capillary formation assay; format: cell-based; conditions: VEGF 50 ng/ml
Procedure: Matrigel (10 mg/mL) (BD, USA) was coated to 48-well plates and polymerized at 37° C. HUVEC (6×10^4 cells) was inoculated on the surface of matrigel in 48-well plates. Under the presence of VEGF (50 ng/ml), the compound was added for 4 hrs at 37° C. Cell morphological changes and a capillary structure formed were observed microscope (IX71, Olympus), and the images were obtained using DP70 camera (Olympus) at 100× magnification.

## CO/C1=C\C(C)=C\[C@@H](C)[C@@H](O)[C@@H](C)C/C(C)=C/C=C/[C@H](OC)[C@@H]([C@@H](C)[C@@H](O)[C@H](C)[C@@]2(O)C[C@@H](O)[C@H](C)[C@@H](C(C)C)O2)OC1=O [Bafilomycin A]
[1]; indatraline 5 μM
  effect of autophagy inhibitor on indatraline-induced conversion of LC3-I to LC3-II: inhibited
[1]; indatraline 10 μM
  effect of autophagy inhibitor on indatraline-induced conversion of LC3-I to LC3-II: inhibited

## CN[C@@H]1C[C@@H](c2ccc(Cl)c(Cl)c2)c2ccccc21 [indatraline]
[2]; 1 μM, 24 hrs, HCS
  autophagy induction (Lysotracker fluorescence) relative to control group: 2.87 times
[2]; Lysotracker
  autophagy induction in HCS: induced autophagy similar to rapamycin
[3]
  MDC staining fluorescence: dose-dependent increase of fluorescence from 1 μM
[4]
  LC3 conversion: strongly occurred
[5]; 48 hrs
  melanogenesis inhibited: approximately 89%
[5]; 72 hrs
  melanogenesis inhibited: approximately 74%
[6]
  migration of HUVEC: inhibited migration
[7]; 24 hrs
  cell growth inhibited: 62%
[7]; after 24 hrs (maintained)
  cell growth inhibited (maintained): 56%
[1]; HeLa, 24 hrs
  concentration from which LC3 conversion (autophagy induction) occurs: ≥ 5 µM
[8]
  pIC50: 6.30
[9]; 48 hrs
  melanogenesis inhibited: approximately 77%
[9]; 72 hrs
  melanogenesis inhibited: approximately 59%
[10]; 24 hrs
  cell growth inhibited: 55%
[10]; after 24 hrs (maintained)
  cell growth inhibited (maintained): 54%
[11]; 0.5 μM and 1 μM, 18 hrs
  VEGF-induced invasion: significantly decreased invasion cells
[11]; FIG. 4B legend
  concentration from which VEGF-induced invasion is effectively inhibited: ≥ 5 µM
[12]
  EGFP-LC3 fluorescence in the cytoplasm: increased indatraline concentration-dependently
[13]
  cytotoxicity: no cytotoxicity
[14]
  cytotoxicity: no cytotoxicity
[15]
  concentration from which LC3 conversion (autophagy induction) occurs: ≥ 5 µM
[16]
  concentration from which LC3 conversion is observed: ≥ 1 µM
[17]
  angiostenosis: significantly inhibited
  proliferation of smooth muscle cells: inhibited
[17]; control approximately 80%
  intima area (ratio between intima area and media area): less than 60%
[17]; catheter treatment, intima/media ratio
  smooth muscle cell growth reduced compared to control group: approximately 20%
[18]
  pIC50: 5.52
[19]; 1 μM
  VEGF-induced capillary formation: inhibited the mature capillary formation
[19]; 4 hrs
  capillary formation: weakly inhibited
